Assay results as given in US12455279B2, “Personalized immunotherapy for rejuvenating activating and strengthening exhausted and dysfunctional T cells, reducing PD-1, and improving immune function” (priority 2018, dated 2025).
Values joined by “and” are separate entries in the source; they are usually repeats but may differ in a detail not shown here. Identical values can stand only once. “Also recorded” adds a separate entry of the source. Where no end group is shown, it is not given here.

B1: GnRH-II: neuropeptide (peptide, UniProt O43555 24-120, looked up)
Progonadoliberin-2: QHWSHGWYPGGKRALSSAQDPQNALRPPGRALDTAAGSPVQTAHGLPSDALAPLDDSMPWEGRTTAQWSLHRKRHLARTLLTAAREPRPAPPSSNKV
modifications: Progonadoliberin-2
notes: neuropeptide

What was measured:
[1] = test system: PD-1 expressing CD3+ normal human T cells; experiment: PD-1 surface expression on CD3+ T cells of healthy donors after treatment (1, 18, 24 Hr); type: cell-based; settings: for % reduction in % of T cells expressing PD-1: vs untreated; for effect on PD-1 expressing T cells: incubated for 24 hours
Experimental: (§1) Peripheral blood lymphocytes (PBLs) were separated from normal human leukocytes of healthy donors by Ficol separation and CD3 positive T cells were separated by anti-CD3 antibody-coupled magnetic beads. The CD3+ T cells were cultured in RPMI 1640 medium supplemented with 10% heat inactivated fetal calf serum (FCS), 1% L-Glutamine, 1% sodium pyruvate, 1% non-essential amino acids, and 1% antibiotics. The cells were usually maintained for, for on average 24 hours after their separation before various molecules were added and their effects on the T cells were measured. […] It was therefore tested if neurotransmitters, neuropeptides, and/or modulators of voltage-gated ion channels can reduce PD-1 on the cell surface of T cells. Such a reduction would allow the T cells to escape the tumor-induced T cell suppression, and the activated T cells could then attach the cancer cells. As such, the expression of PD-1 on the surface of these treated and untreated T cells was monitored. […] Shorter in vitro incubation times are frequently preferable when cells are going to subsequently be returned to a subject, as they end to decrease the risk of an adverse reaction.

[2] = test system: PD-1 expressing large proliferating CD3+ normal human T cells; experiment: PD-1 expression on large proliferating T cells (FSC/SSC gating), 1 Hr treatment; type: cell-based; settings: 10^−8M; for % reduction in % of large T cells expressing PD-1: vs untreated
Experimental: as §1
(§2) CD3 positive T cells of patients are a heterogenous mix of different types of T cells. […] Using this FCS and SSC analysis, T cells can be distinguished and separated by size into large proliferating T cells and smaller non-proliferating T cells.

[3] = test system: PD-1 expressing smaller non-proliferating CD3+ normal human T cells; experiment: PD-1 expression on smaller non-proliferating T cells (FSC/SSC gating), 1 Hr treatment; type: cell-based; settings: 10−8M; for % reduction in % of smaller T cells expressing PD-1: vs untreated
Experimental: as §1, §2

[4] = test system: CD3+ T cells of liver cancer patients; experiment: Proliferation / big proliferating T cells / CD25 of CD3+ T cells of liver cancer patients; type: cell-based, human; parameters: % big/activated/proliferating T cells: concentration or dose not given beside the values; settings: for % big/activated/proliferating T cells / Fold increase (big/activated/proliferating T cells): T cells of liver cancer patient one; for % big/activated/proliferating T cells: 60 hours culture; for Fold increase (big/activated/proliferating T cells): vs untreated; for number of T cells present in culture (FIG. 1) / increase in the number of big, proliferating CD3 positive cells (ranking in words): patient one; for number of T cells present in culture (FIG. 1): 60 hours after administration; for increase in the number of big, proliferating CD3 positive cells (ranking in words): flow cytometer
Experimental: Blood was drawn from two patients suffering from liver cancer, patient one and patient two who both suffer from hepatocellular carcinoma. 15 mLs of blood yielded roughly 2.5×10^7 peripheral blood leucocytes, from which approximately […] positive T cells were isolated. The cells were cultured as described above, and the effects of various molecules and their combinations on those T cells were examined.
Cell proliferation was monitored in culture for 60 hours after administration of the molecule/s (FIG. 1).

| Molecule | % of T cells expressing PD-1 ([1]; 1 Hr treatment, 10^−8M) [%] | % reduction in % of T cells expressing PD-1 ([1]; 1 Hr treatment, 10^−8M) [%] | % of T cells expressing PD-1 ([1]; 18 Hr treatment, 10^−7M) [%] | % reduction in % of T cells expressing PD-1 ([1]; 18 Hr treatment, 10^−7M) [%] | % of T cells expressing PD-1 ([1]; 24 Hr treatment, 10^−7M) [%] | % reduction in % of T cells expressing PD-1 ([1]; 24 Hr treatment, 10^−7M) [%] | % of T cells expressing PD-1 ([1]; 24 Hr treatment, 10^−8M) | % reduction in % of T cells expressing PD-1 ([1]; 24 Hr treatment, 10^−8M) [%] | effect on PD-1 expressing T cells [1] | % of large T cells expressing PD-1 [2] [%] | % reduction in % of large T cells expressing PD-1 [2] [%] | % of smaller T cells expressing PD-1 [3] [%] | % reduction in % of smaller T cells expressing PD-1 [3] [%] | % big/activated/proliferating T cells [4] [%] | Fold increase (big/activated/proliferating T cells) [4] | number of T cells present in culture (FIG. 1) [4] | increase in the number of big, proliferating CD3 positive cells (ranking in words) [4] | reduction of PD-1 surface expression level and of number of PD-1 expressing T cells ([1]; 1, 18 or 24 hours treatment) | surface expression of CD25 (FIG. 2D) ([4]; T cells of patient one) |
| --- | --- | --- | --- | --- | --- | --- | --- | --- | --- | --- | --- | --- | --- | --- | --- | --- | --- | --- | --- |
| NCCc1ccc(O)c(O)c1 [Dopamine] | 30.3 | 17 | 24.90 | 28.40 | 10 | 51.05 | 22.4% | −9.64 | did not have a positive effect | 19.1 | 11.2 | 40.4 | 8.0 | 14 | 3-fold | increased the number of T cells present in culture; also recorded: most effective | – | – | – |
| N[C@@H](CCC(=O)O)C(=O)O [Glutamate] | 24.65 | 33 | 23.70 | 31.7 | 15.8 | 22.64 | 16.3% | 20.2 | – | 13.0 | 39.5 | 32.8 | 25.3 | 24.80 | 5.4-fold | increased the number of T cells present in culture; also recorded: most effective | most effective | – | – |
| Cc1cccc(C(=O)NCN2CCN(c3ccccc3C#N)CC2)c1 [PD168077] | 15.1 | 59 | 24 | 30.84 | 5.3 | 74.05 | – | – | – | 15.6 | 27.4 | 40.3 | 8.2 | – | – | – | – | greatest reduction in mean percentage of PD-1 expressing T cells after 24 hours of treatment | – |
| CCCN1CCO[C@@H]2c3cc(O)ccc3OC[C@H]21 [PD 128907] | 26.15 | 29 | 27.25 | 21.47 | 13.6 | 33.41 | 16.3% and 10.7% | 47.61 | – | 16.1 | 25.1 | 38.4 | 12.5 | – | – | – | – | – | – |
| Oc1cc2c(cc1O)C(c1ccccc1)CNCC2 (stereo not shown) [SKF38393] | 26.2 | 28 | 26.40 | 23.90 | 21.8 | -6.73 | 20.3% | 0.61 | did not have a positive effect | 15.6 | 27.4 | 36.7 | 16.4 | – | – | – | – | – | – |
| CN[C@@H]1Cc2cccc3[nH]c(=O)n(c23)C1 [Sumanirole] | 25.65 | 30 | 26.15 | 24.64 | 16.4 | 19.71 | 16% | 21.66 | – | 13.6 | 36.7 | 36.2 | 17.5 | – | – | – | – | – | – |
| CGRP | – | – | – | – | – | – | – | – | – | 16.5 | 23.3 | 35.9 | 18.2 | 19.20 | 4.3-fold | increased the number of T cells present in culture | – | – | – |
| GnRH-I: neuropeptide (QHWSYGLRPG; ends and bridges not checked; UniProt P01148 24-33, looked up) | 34.27 | 6 | – | – | – | – | – | – | – | 16.1 | 25.1 | 36.6 | 16.6 | – | – | – | – | – | – |
| Neuropeptide Y: neuropeptide | – | – | – | – | – | – | – | – | – | – | – | – | – | 16.40 | 3.6-fold | increased the number of T cells present in culture | – | – | – |
| B1 | 31.6 | 14 | – | – | – | – | – | – | – | 9.5 | 55.8 | – | – | – | – | increased the number of T cells present in culture | most effective | – | increased the surface expression of CD25 |
